Patent US9120849B2 (priority 2000, dated 2015)
Where two headings read alike, the source gives them in different places.

Test system: bovine viral diarrhea virus (BVDV)
Details: 60 minutes, 20° C., Reed and Muench
Description: In this example bovine viral diarrhea virus (BVDV), biotype 1 (CPE), genotype 1 Host: Madin-Darby bovine kidney (MDBK) cells were inactivated according to the methods discussed in Example 2.
Bovine viral diarrhea virus (BVDV), biotype I (CPE), genotype 1 was used in these studies which infect Madin-Darby bovine kidney (MDBK) cells. […] These samples (0.5 mL) were loaded into pre-spun sephacryl columns. The columns were spun for 4 minutes at 1000 rpm. The samples were aseptically removed from the columns and ten-fold serial dilutions were then prepared in minimal essential medium (MEM) and adsorbed on the monolayer of host cells seeded in tissue culture plates for one hour at 37±2° C. and 5±1% C02. Post-adsorption, the monolayers were washed with EBSS and replaced with fresh MEM and incubated for 5-7 days at 37±2° C. and 5±1% C02. The presence of infectious viruses was determined as described below: post-incubation, the plates were washed with 3× with PBS and fixed with TC grade alcohol and stained with direct porcine polyclonal anti-BVDV conjugated antibody. The stained plate were scored using UV microscopy using a Nikon Diaphot microscope, and monolayers that contained one or more BVDV surface antigen positive […] were scored positive. Four wells per dilution were inoculated and results were recorded as the FFFUD50 calculated by Reed and Munch (1938).

Measured: FFFUD50/mL (log10)

paraformaldehyde
0 FFFUD50/mL (log10): 2.5% paraformaldehyde column 1 | 2.5% paraformaldehyde column 2 | 2.5% paraformaldehyde column 3 | 2.5% paraformaldehyde column 4
